According to ChEMBL document CHEMBL1129992, “Arylamide inhibitors of HIV-1 integrase” (J Med Chem, 1997):

Columns and labels:
[1] = biological target: T1, Human immunodeficiency virus type 1 integrase (Human immunodeficiency virus 1, UniProt Q7ZJM1); experiment: Inhibition of HIV-1 integrase-mediated strand transfer
[2] = biological target: T1, Human immunodeficiency virus type 1 integrase; experiment: Inhibition of HIV-1 integrase-mediated 3'-processing

T1 sequence (Q7ZJM1 whole entry): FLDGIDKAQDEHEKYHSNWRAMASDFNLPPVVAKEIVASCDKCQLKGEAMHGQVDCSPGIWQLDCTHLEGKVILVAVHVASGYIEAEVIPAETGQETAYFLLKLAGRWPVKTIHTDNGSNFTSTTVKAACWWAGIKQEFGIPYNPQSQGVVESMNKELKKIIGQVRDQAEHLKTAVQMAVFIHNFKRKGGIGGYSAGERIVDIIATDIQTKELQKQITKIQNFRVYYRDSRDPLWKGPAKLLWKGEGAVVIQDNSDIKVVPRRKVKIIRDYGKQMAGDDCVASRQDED

Row | Structure (SMILES) | IC50 [1] [µM] | IC50 [2] [µM]
1 | COc1ccc2cc(C(=O)NCCCNC(=O)c3ccc4cc(OC)ccc4c3)ccc2c1 | > 200 | > 200
2 | O=C(CCc1ccc(O)cc1)NCCc1ccc(O)cc1 | – | > 350
3 | O=C(CCc1cc(O)cc(O)c1)NCCCNC(=O)CCc1cc(O)cc(O)c1 | > 200 | > 200
4 | COc1cc2ccc(C(=O)NCCCNC(=O)c3ccc4cc(OC)c(OC)cc4c3)cc2cc1OC | > 200 | > 200
5 | O=C(CCc1ccc(O)c(O)c1)NCCc1ccc(O)c(O)c1 | – | 33
6 | COC(=O)c1ccc2c(O)c(O)ccc2c1 | 52.7 | 58.4
7 | O=C(O)c1ccc2c(O)c(O)ccc2c1 | 62.4 | 53.3
8 | O=C(O)c1ccc2cc(O)c(O)cc2c1 | 4.7 | 5.4
9 | O=C(NCCCNC(=O)c1ccc2c(O)c(O)ccc2c1)c1ccc2c(O)c(O)ccc2c1 | 0.11 | 0.23
10 | COC(=O)c1ccc2cc(O)ccc2c1 | > 200 | > 200
11 | O=C(CCc1ccc(O)c(O)c1)NCCc1cc(O)cc(O)c1 | – | > 350
12 | O=C(CCc1ccc(O)cc1)NCCc1cccc(O)c1 | – | > 350
13 | COc1ccc2cc(C(=O)NCCCNC(=O)c3ccc4c(OC)c(OC)ccc4c3)ccc2c1OC | > 200 | > 200
14 | O=C(NCCCNC(=O)c1ccc2cc(O)c(O)cc2c1)c1ccc2cc(O)c(O)cc2c1 | 0.81 | 0.98
15 | COC(=O)c1ccc2cc(O)c(O)cc2c1 | > 200 | > 200
16 | O=C(NCCCNC(=O)c1ccc2cc(O)ccc2c1)c1ccc2cc(O)ccc2c1 | > 200 | > 200
17 | O=C(CCc1cc(O)cc(O)c1)NCCc1cc(O)cc(O)c1 | – | > 350
18 | O=C(O)c1ccc2cc(O)ccc2c1 | 172 | 172
19 | O=C(CCc1ccc(O)cc1)NCCCNC(=O)CCc1ccc(O)cc1 | > 200 | > 200
20 | O=C(CCc1cccc(O)c1)NCCc1ccc(O)cc1 | – | > 350
21 | O=C(CCc1cccc(O)c1)NCCc1cccc(O)c1 | – | > 350
22 | O=C(CCc1cccc(O)c1)NCCCNC(=O)CCc1cccc(O)c1 | > 200 | > 200
23 | O=C(CCc1cc(O)cc(O)c1)NCCc1ccc(O)c(O)c1 | – | > 350
